Reference: PubChem BioAssay (NCI)
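Five compound concentrations were applied to cells in 96-well plates for 48 hours; endpoints were derived by simple linear interpolation of the resulting dose-response curve. Definition used: TGI = concentration required for complete inhibition of growth.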

Columns and labels:
Assay in all cases: inhibition of tumour cell growth, NCI panel, 48 h
SF-539 CNS = test system: SF-539 CNS
RXF 393 renal = test system: RXF 393 renal
SK-OV-3 ovarian = test system: SK-OV-3 ovarian
SF-268 CNS = test system: SF-268 CNS
SF-295 CNS = test system: SF-295 CNS
CAKI-1 renal = test system: CAKI-1 renal
SK-MEL-28 melanoma = test system: SK-MEL-28 melanoma
HS 578T breast = test system: HS 578T breast
SK-MEL-5 melanoma = test system: SK-MEL-5 melanoma
COLO 205 colon = test system: COLO 205 colon
NCI-H522 lung = test system: NCI-H522 lung
OVCAR-5 ovarian = test system: OVCAR-5 ovarian
HCC-2998 colon = test system: HCC-2998 colon
MALME-3M melanoma = test system: MALME-3M melanoma
MOLT-4 leukemia = test system: MOLT-4 leukemia
SNB-19 CNS = test system: SNB-19 CNS
MDA-MB-231 breast = test system: MDA-MB-231 breast
NCI-H226 lung = test system: NCI-H226 lung
LOX IMVI melanoma = test system: LOX IMVI melanoma
HOP-62 NSCLC = test system: HOP-62 NSCLC
SNB-75 CNS = test system: SNB-75 CNS
OVCAR-4 ovarian = test system: OVCAR-4 ovarian
IGROV1 ovarian = test system: IGROV1 ovarian
EKVX NSCLC = test system: EKVX NSCLC
HCT-15 colon = test system: HCT-15 colon
T-47D breast = test system: T-47D breast
A549 NSCLC = test system: A549 NSCLC
SN12C renal = test system: SN12C renal
NCI-H460 lung = test system: NCI-H460 lung
OVCAR-8 ovarian = test system: OVCAR-8 ovarian
TK-10 renal = test system: TK-10 renal
KM12 colon = test system: KM12 colon
DU-145 prostate = test system: DU-145 prostate
CCRF-CEM leukemia = test system: CCRF-CEM leukemia
MCF7 breast = test system: MCF7 breast
HCT-116 colon = test system: HCT-116 colon
OVCAR-3 ovarian = test system: OVCAR-3 ovarian
M14 melanoma = test system: M14 melanoma
UACC-257 melanoma = test system: UACC-257 melanoma
UACC-62 melanoma = test system: UACC-62 melanoma
SK-MEL-2 melanoma = test system: SK-MEL-2 melanoma
NCI-H23 lung = test system: NCI-H23 lung
K-562 leukemia = test system: K-562 leukemia
BT-549 breast = test system: BT-549 breast
MDA-N = test system: MDA-N
786-0 renal = test system: 786-0 renal
HL-60(TB) leukemia = test system: HL-60(TB) leukemia
HT29 colon = test system: HT29 colon
A498 renal = test system: A498 renal
ACHN renal = test system: ACHN renal
HOP-92 NSCLC = test system: HOP-92 NSCLC
NCI/ADR-RES ovarian = test system: NCI/ADR-RES ovarian
SW-620 colon = test system: SW-620 colon
UO-31 renal = test system: UO-31 renal
PC-3 prostate = test system: PC-3 prostate
MDA-MB-435 = test system: MDA-MB-435
U251 CNS = test system: U251 CNS

SMILES: COc1ccc(-c2oc3cc(OC)c(OC)c(OC)c3c(=O)c2OC)cc1OC
- TGI (SF-539 CNS): > 100 µM
- TGI (RXF 393 renal): > 100 µM
- TGI (SK-OV-3 ovarian): > 100 µM
- TGI (SF-268 CNS): > 100 µM
- TGI (SF-295 CNS): > 100 µM
- TGI (CAKI-1 renal): > 100 µM
- TGI (SK-MEL-28 melanoma): > 100 µM
- TGI (HS 578T breast): > 100 µM
- TGI (SK-MEL-5 melanoma): > 100 µM
- TGI (COLO 205 colon): > 100 µM
- TGI (NCI-H522 lung): > 100 µM
- TGI (OVCAR-5 ovarian): > 100 µM
- TGI (HCC-2998 colon): > 100 µM
- TGI (MALME-3M melanoma): > 100 µM
- TGI (MOLT-4 leukemia): > 100 µM
- TGI (SNB-19 CNS): > 100 µM
- TGI (MDA-MB-231 breast): > 100 µM
- TGI (NCI-H226 lung): > 100 µM
- TGI (LOX IMVI melanoma): > 100 µM
- TGI (HOP-62 NSCLC): > 100 µM
- TGI (SNB-75 CNS): > 100 µM
- TGI (OVCAR-4 ovarian): > 100 µM
- TGI (IGROV1 ovarian): > 100 µM
- TGI (EKVX NSCLC): > 100 µM
- TGI (HCT-15 colon): > 100 µM
- TGI (T-47D breast): > 100 µM
- TGI (A549 NSCLC): > 100 µM
- TGI (SN12C renal): > 100 µM
- TGI (NCI-H460 lung): > 100 µM
- TGI (OVCAR-8 ovarian): > 100 µM
- TGI (TK-10 renal): > 100 µM
- TGI (KM12 colon): > 100 µM
- TGI (DU-145 prostate): > 100 µM
- TGI (CCRF-CEM leukemia): > 100 µM
- TGI (MCF7 breast): > 100 µM
- TGI (HCT-116 colon): > 100 µM
- TGI (OVCAR-3 ovarian): > 100 µM
- TGI (M14 melanoma): > 100 µM
- TGI (UACC-257 melanoma): > 100 µM
- TGI (UACC-62 melanoma): > 100 µM
- TGI (SK-MEL-2 melanoma): > 100 µM
- TGI (NCI-H23 lung): > 100 µM
- TGI (K-562 leukemia): > 100 µM
- TGI (BT-549 breast): > 100 µM
- TGI (MDA-N): > 100 µM
- TGI (786-0 renal): > 100 µM
- TGI (HL-60(TB) leukemia): 83.4 µM
- TGI (HT29 colon): > 100 µM
- TGI (A498 renal): > 100 µM
- TGI (ACHN renal): > 100 µM
- TGI (HOP-92 NSCLC): > 100 µM
- TGI (NCI/ADR-RES ovarian): > 100 µM
- TGI (SW-620 colon): > 100 µM
- TGI (UO-31 renal): > 100 µM
- TGI (PC-3 prostate): > 100 µM
- TGI (MDA-MB-435): > 100 µM
- TGI (U251 CNS): > 100 µM
